Experimental data: US20240042051A1, “MCL-1 INHIBITOR ANTIBODY-DRUG CONJUGATES AND METHODS OF USE” (Novartis AG, priority 2020, published 2024)

Assays:
[1] = tested on: KMS27 xenografts; assay: KMS27 multiple myeloma xenograft, tumor growth inhibition and delay; type: in vivo, NSG mice; settings: 50 mg/kg QD3, PO, single agent
Method: The in vivo therapeutic effect of two CD48-targeting MCL-1 ADCs formulated in Phosphate-Buffered Saline (PBS) was determined in KMS27 multiple myeloma model after intravenous (IV) administration.
KMS27 cells, obtained from JCRB, were cultured in RPMI supplemented with 10% FBS. Cells were resuspended in 50% matrigel (BD Biosciences) and 0.1 ml containing 10×10^6 cells were subcutaneously inoculated into the right flank of female NSG mice, provided by Jax. When tumors reached the appropriate volume, mice were randomized, 6 animals per group, using Easy stat software. Anti-CD48 NY920_CysmAb Fc silent, anti-CD48 NY938_CysmAb Fc silent, anti-CD48 NY920_CysmAb Fc silent_L42-P1 and anti-CD48 NY938_CysmAb Fc silent_L42-P1 (2.5 and/or 5 mg/kg) were injected once IV in PBS in combination with ABT-199 (50 mg/kg, PO for 3 consecutive days=QD3 in PEG/ethanol/phosal). Mice body weight was monitored three times a week and tumor size measured using electronic calipers. Tumor volume was estimated by measuring the minimum and maximum tumor diameters using the formula: (minimum diameter)^2 (maximum diameter)/2. […]
With DTV (Delta Tumor Volume) at Dx, calculated being TV at Dx-TV at Randomization. Tumor Growth Delay (TGD) was calculated as the number of days required for the median tumor volume in each group to reach back the starting tumor volume (at randomization). […]

[2] = tested on: KMS-21-BM xenografts; assay: KMS-21-BM multiple myeloma xenograft, tumor growth inhibition and delay; type: in vivo, NSG mice; settings: 0.5 mg/kg QD, single agent
Method: The in vivo therapeutic effect of a CD48-targeting MCL-1 ADC formulated in Phosphate-Buffered Saline (PBS) was determined in KMS-21-BM multiple myeloma model after intravenous (IV) administration.
KMS-21-BM cells, obtained from JCRB, were cultured in RPMI supplemented with 10% FBS. Cells were resuspended in 100% matrigel (BD Biosciences) and 0.1 ml containing 10×10^6 cells were subcutaneously inoculated into the right flank of female NSG mice, provided by Jax. When tumors reached the appropriate volume, mice were randomized, 6 animals per group, using Easy stat software. IgG1-Linker-Payload Fc WT, anti-CD48 NY920_CysmAb Fc WT, anti-CD48 NY920_CysmAb Fc WT_L42-P1 (10 and/or 30 mg/kg) and Bortezomib (0.5 mg/kg) were injected, alone or in combination, once IV in PBS and NaCl 0.9%, respectively. Mice body weight was monitored three times a week and tumor size measured using electronic calipers. Tumor volume was estimated by measuring the minimum and maximum tumor diameters using the formula: (minimum diameter)^2 (maximum diameter)/2. Tumor growth inhibition on day 21 was calculated using the formula: […]
With DTV (Delta Tumor Volume) at Dx, calculated being TV at Dx−TV at Randomization. Tumor Growth Delay (TGD) was calculated as the number of days required for the median tumor volume in each group to reach 500 mm^3. […]

[3] = tested on: NCI-H929, KMS-21 BM and KMS-27 cancer cell lines; assay: CellTiter-Glo proliferation assay (Example 7), summary over cell lines; type: cell-based; settings: read-out: IC50 values, range over representative cancer cell lines
Method: (§1) The CD48 MCL-1 antibody drug conjugates were tested against three endogenous cancer cell lines: NCI-H929 (ATCC No. CRL-9068 cultured in RPMI-1640+10% FBS+0.05 mM 2-mercaptoethanol), KMS-21 BM (JCRB No. JCRB1185 cultured in RPMI-1640+10% FBS) and KMS-27 (JCRB No. JCRB1188 cultured in RPMI-1640+10% FBS).
The ability of the MCL-1 antibody drug conjugates to inhibit cell proliferation and survival was assessed using the Promega CellTiter-Glo® proliferation assay. ADCs were generated generally as described in Example 6. Cell lines were cultured in media that is optimal for their growth at 5% CO2, 37° C. in a tissue culture incubator. Prior to seeding for the proliferation assay, the cells were split at least 2 days before the assay to ensure optimal growth density. On the day of seeding, cell viability and cell density were determined using a cell counter (Vi-Cell XR Cell Viability Analyzer, Beckman Coulter). […] Plates were incubated at 5% CO2, 37° C. for 5 days in a tissue culture incubator, after which cell viability was assessed through the addition of 25 μL of CellTiter Glo® (Promega, cat #G7573), a reagent which lyses cells and measures total adenosine triphosphate (ATP) content. Plates were incubated at room temperature for 10 minutes to stabilize luminescent signals prior to reading using a luminescence reader (EnVision Multilabel Plate Reader, PerkinElmer). […]

[4] = tested on: KMS-27; assay: CellTiter-Glo proliferation assay (Example 7); type: cell-based; settings: 5 days
Method: as §1
(§2) The ability of the MCL-1 antibody drug conjugates to inhibit cell proliferation and survival was assessed using the Promega CellTiter-Glo® proliferation assay. ADCs were generated generally as described in Example 6. Cell lines were cultured in media that is optimal for their growth at 5% CO2, 37° C. in a tissue culture incubator. Prior to seeding for the proliferation assay, the cells were split at least 2 days before the assay to ensure optimal growth density. On the day of seeding, cell viability and cell density were determined using a cell counter (Vi-Cell XR Cell Viability Analyzer, Beckman Coulter). Cells with higher than 85% viability were seeded in white clear bottom 384-well TC treated plates (Corning cat. #3765). Cells were seeded at a density of 1,000 cells per well in 45 μL of standard growth media. Plates were incubated at 5% CO2, 37° C. overnight in a tissue culture incubator. The next day, free MCL-1 payload (P1), targeting MCL-1 ADCs, and non-targeting isotype (IgG) ADCs were prepared at 10× in standard growth media. The prepared MCL-1 payload (P1) treatment was then added to the cells resulting in final concentrations of 0.005-100 nM and a final volume of 50 uL per well. The prepared CD48 targeting and isotype matched non-targeting control ADC treatments were added to the cells resulting in final concentrations of 0.015-300 nM and a final volume of 50 uL per well. Each drug concentration was tested in quadruplets. Plates were incubated at 5% CO2, 37° C. for 5 days in a tissue culture incubator, after which cell viability was assessed through the addition of 25 μL of CellTiter Glo® (Promega, cat #G7573), a reagent which lyses cells and measures total adenosine triphosphate (ATP) content. Plates were incubated at room temperature for 10 minutes to stabilize luminescent signals prior to reading using a luminescence reader (EnVision Multilabel Plate Reader, PerkinElmer). To evaluate the effect of the drug treatments, luminescent counts from wells containing untreated cells (100% viability) were used to normalize treated samples. A variable slope model was applied to fit a nonlinear regression curve to the data in GraphPad PRISM version 7.02 software. IC50 and Amax values were extrapolated from the resultant curves.

[5] = tested on: NCI-H929; assay: CellTiter-Glo proliferation assay (Example 7); type: cell-based; settings: 5 days
Method: as §1, §2

[6] = tested on: KMS-21-BM; assay: CellTiter-Glo proliferation assay (Example 7); type: cell-based; settings: 5 days
Method: as §1, §2

With `CC1(C)CCC(CN2CCN(c3ccc(C(=O)NS(=O)(=O)c4ccc(NCC5CCOCC5)c([N+](=O)[O-])c4)c(Oc4cnc5[nH]ccc5c4)c3)CC2)=C(c2ccc(Cl)cc2)C1` [ABT-199, venetoclax] the “% TGI (d4)” value [1] was 120.82% and the TGD ([1]; to reach back starting tumor volume) was 6.27 days.
For `CC(C)C[C@H](NC(=O)[C@H](Cc1ccccc1)NC(=O)c1cnccn1)B(O)O` [Bortezomib], the “% TGI (d21)” value ([2]; IV (once)) was 88.09% and the TGD ([2]; IV, median tumor volume to reach 500 mm^3) was 42.53 days.
For `COc1ccccc1-c1nccc(COc2ccccc2C[C@@H](Oc2ncnc3sc(-c4ccc(F)cc4)c(-c4ccc(OCCN5CCN(C)CC5)c(Cl)c4C)c23)C(=O)O)n1` [P1, (2R)-2-[5-[3-chloro-2-methyl-4-[2-(4-methylpiperazin-1-yl)ethoxy]phenyl]-6-(4-fluorophenyl)thieno[2,3-d]pyrimidin-4-yl]oxy-3-[2-[[2-(2-methoxyphenyl)pyrimidin-4-yl]methoxy]phenyl]propanoic acid], the IC50 [3] was 1.16 to 11.2 nM, the IC50 ([4]; 120 h) was 11.2 nM and the “Amax (Span)” value [4] was 99. The “Amax (Span)” value [5] was 110.3, the IC50 ([5]; Homo sapiens, 120 h) was 4.73 nM and the IC50 ([6]; 120 h) was 1.16 nM. The “Amax (Span)” value [6] was 100.9.
